Measurements reported in patent US20130137131A1, “System and Method of Producing Volatile Organic Compounds from Fungi” (priority 2010, published 2013).

Tested on: Hypoxylon sp. CI-4
Assay: Response of Hypoxylon sp. CI-4 to epigenetic modifying agents
Format: cell-based
Conditions: lower concentrations seemingly ineffective
Text: The wild-type Hypoxylon sp. had previously been found as an endophyte in Persea indica growing in the Laurisilva, Tenerife, Spain (Tomsheck et al., 2010, Microb Ecol 60:903-914). The fungus, growing on potato dextrose agar (PDA), was hyphal tipped in order to obtain a genetically pure strain, CI-4. This strain was used for epigenetic modulation using a histone deacetylase inhibitor, suberoylanilide hydroxamic acid (SAHA) and a DNA methyltransferase inhibitor, 5-azacytidine (AZA) as the modulating compounds (Cichewicz, 2010, Nat Prod Rep 27:11-22). Stock solutions of these compounds were prepared in DMSO and sterile deionized water, respectively. The fungus was grown on PDA supplemented with different concentrations of the epigenetic modulators (1, 5, 10, 20, 30, 50 and 100 μM) for 15 days. The numerous variants resulting from concentrations of modulators producing the most notable cultural, biological and VOC changes were selected for future study. The strains studied here were CI-4 (wild-type), CI4-B (strain selected after a 15 day exposure of CI-4 to 50 μM SAHA, hyphal tipped, transferred to PDA and studied without subsequent exposure to SAHA), CI4-SAHA (strain CI-4 exposed to 50 μM SAHA in all studies), and CI4-AZA (strain CI-4 exposed to 100 μM AZA in all studies).
Successful attempts were made to acquire a response of Hypoxylon sp. […]

| SMILES | Changes in the morphology and bioactivities of the cultures (growth of strain CI-4 on PD broth with 100 μM AZA) | Changes in the morphology and bioactivities of the cultures (growth of strain CI-4 on PD broth with 50 μM SAHA) |
| --- | --- | --- |
| Nc1ncn([C@@H]2O[C@H](CO)[C@@H](O)[C@H]2O)c(=O)n1 [AZA, 4-amino-1-(β-D-ribofuranosyl)-1,3,5-triazin-2(1H)-one] | the most striking changes in the morphology and bioactivities of the cultures | – |
| O=C(CCCCCCC(=O)Nc1ccccc1)NO [SAHA, N-hydroxy-N′-phenyl-octanediamide] | – | the most striking changes in the morphology and bioactivities of the cultures |
